Results from patent US11993599B2, “Therapeutic compounds” (Genentech, Inc., priority 2021, dated 2024).

Legend:
[1] = target: T1, BRG1 (Homo sapiens, UniProt P51532); assay: Immunofluorescence assay for BRG1 degradation in SW1573 cells; type: cell-based; details: 20 hours incubation; for DC50: immunofluorescence mean nuclear signal, read-out: BRG1 IF Degradation IC50; for Dmax: SW1573, 20 h, normalized to a known degrader control, read-out: BRG1 IF Degradation Sinf (%)
T1 construct: either BRM primary antibody (Cell signaling Cat #11966) or BRG primary antibody (Abcam, ab 110641); endogenous in cells; host or cells: SW1573
How it was run: (§1)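 Read-out: mean per-cell nuclear BRM or BRG1 immunofluorescence by automated imaging. SW1573, 20 h compound, 4% formaldehyde fix, Triton permeabilization, overnight 4 °C primary antibody, fluorescent secondary plus Hoechst. Normalized to reference degrader; floating-max curve fit gives Dmax.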

[2] = target: BRM (Homo sapiens, UniProt P51531); assay: Immunofluorescence assay for BRM degradation in SW1573 cells; type: cell-based; parameters: treated overnight at 4° C. with either BRM primary antibody (Cell signaling Cat #11966) or BRG primary antibody; endogenous in cells; host or cells: SW1573; details: 20 hours incubation; for DC50: immunofluorescence mean nuclear signal, read-out: BRM IF Degradation IC50; for BRM IF Degradation Sinf (%): normalized to a known degrader control
How it was run: as §1

Sequence of BRM (P51531 whole entry): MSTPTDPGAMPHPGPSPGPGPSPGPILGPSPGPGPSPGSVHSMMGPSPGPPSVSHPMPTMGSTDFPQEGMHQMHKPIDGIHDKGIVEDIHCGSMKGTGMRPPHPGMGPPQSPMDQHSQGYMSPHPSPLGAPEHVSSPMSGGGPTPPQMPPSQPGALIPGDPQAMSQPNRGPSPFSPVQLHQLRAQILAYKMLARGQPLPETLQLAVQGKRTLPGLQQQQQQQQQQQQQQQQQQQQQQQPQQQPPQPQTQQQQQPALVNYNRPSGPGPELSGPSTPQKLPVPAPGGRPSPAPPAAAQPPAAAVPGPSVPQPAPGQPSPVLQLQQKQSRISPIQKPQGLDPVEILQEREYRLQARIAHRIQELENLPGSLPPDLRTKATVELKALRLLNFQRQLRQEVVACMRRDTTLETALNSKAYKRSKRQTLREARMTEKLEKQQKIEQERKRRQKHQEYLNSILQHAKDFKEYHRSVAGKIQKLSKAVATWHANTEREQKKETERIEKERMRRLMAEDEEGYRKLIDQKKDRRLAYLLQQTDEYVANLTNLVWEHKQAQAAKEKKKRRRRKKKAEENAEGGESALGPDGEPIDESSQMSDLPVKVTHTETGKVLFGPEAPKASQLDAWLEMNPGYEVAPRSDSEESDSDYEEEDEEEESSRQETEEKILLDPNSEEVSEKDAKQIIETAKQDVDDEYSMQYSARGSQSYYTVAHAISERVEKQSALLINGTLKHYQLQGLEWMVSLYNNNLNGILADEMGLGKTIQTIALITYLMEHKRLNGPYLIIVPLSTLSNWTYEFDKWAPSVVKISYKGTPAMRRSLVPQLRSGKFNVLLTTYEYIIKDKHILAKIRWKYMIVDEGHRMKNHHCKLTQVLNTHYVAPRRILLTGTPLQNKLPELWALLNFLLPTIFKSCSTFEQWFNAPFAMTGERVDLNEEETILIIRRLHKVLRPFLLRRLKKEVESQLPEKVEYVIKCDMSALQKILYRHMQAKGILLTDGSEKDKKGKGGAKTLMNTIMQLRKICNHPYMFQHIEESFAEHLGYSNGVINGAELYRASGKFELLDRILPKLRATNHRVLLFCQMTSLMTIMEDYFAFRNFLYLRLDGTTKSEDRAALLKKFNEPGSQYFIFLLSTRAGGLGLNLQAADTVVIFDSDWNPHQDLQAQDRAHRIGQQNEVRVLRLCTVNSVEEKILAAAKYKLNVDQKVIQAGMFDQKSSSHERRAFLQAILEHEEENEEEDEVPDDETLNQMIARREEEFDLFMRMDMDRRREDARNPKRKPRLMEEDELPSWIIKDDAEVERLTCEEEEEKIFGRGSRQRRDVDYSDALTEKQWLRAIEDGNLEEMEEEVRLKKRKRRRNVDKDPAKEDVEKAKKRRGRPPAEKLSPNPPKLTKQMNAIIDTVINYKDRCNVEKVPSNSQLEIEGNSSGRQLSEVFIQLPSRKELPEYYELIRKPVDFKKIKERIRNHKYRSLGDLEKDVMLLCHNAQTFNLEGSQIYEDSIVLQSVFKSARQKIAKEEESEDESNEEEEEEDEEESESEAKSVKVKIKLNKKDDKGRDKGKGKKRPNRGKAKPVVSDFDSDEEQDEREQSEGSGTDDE
T1 sequence (P51532 whole entry): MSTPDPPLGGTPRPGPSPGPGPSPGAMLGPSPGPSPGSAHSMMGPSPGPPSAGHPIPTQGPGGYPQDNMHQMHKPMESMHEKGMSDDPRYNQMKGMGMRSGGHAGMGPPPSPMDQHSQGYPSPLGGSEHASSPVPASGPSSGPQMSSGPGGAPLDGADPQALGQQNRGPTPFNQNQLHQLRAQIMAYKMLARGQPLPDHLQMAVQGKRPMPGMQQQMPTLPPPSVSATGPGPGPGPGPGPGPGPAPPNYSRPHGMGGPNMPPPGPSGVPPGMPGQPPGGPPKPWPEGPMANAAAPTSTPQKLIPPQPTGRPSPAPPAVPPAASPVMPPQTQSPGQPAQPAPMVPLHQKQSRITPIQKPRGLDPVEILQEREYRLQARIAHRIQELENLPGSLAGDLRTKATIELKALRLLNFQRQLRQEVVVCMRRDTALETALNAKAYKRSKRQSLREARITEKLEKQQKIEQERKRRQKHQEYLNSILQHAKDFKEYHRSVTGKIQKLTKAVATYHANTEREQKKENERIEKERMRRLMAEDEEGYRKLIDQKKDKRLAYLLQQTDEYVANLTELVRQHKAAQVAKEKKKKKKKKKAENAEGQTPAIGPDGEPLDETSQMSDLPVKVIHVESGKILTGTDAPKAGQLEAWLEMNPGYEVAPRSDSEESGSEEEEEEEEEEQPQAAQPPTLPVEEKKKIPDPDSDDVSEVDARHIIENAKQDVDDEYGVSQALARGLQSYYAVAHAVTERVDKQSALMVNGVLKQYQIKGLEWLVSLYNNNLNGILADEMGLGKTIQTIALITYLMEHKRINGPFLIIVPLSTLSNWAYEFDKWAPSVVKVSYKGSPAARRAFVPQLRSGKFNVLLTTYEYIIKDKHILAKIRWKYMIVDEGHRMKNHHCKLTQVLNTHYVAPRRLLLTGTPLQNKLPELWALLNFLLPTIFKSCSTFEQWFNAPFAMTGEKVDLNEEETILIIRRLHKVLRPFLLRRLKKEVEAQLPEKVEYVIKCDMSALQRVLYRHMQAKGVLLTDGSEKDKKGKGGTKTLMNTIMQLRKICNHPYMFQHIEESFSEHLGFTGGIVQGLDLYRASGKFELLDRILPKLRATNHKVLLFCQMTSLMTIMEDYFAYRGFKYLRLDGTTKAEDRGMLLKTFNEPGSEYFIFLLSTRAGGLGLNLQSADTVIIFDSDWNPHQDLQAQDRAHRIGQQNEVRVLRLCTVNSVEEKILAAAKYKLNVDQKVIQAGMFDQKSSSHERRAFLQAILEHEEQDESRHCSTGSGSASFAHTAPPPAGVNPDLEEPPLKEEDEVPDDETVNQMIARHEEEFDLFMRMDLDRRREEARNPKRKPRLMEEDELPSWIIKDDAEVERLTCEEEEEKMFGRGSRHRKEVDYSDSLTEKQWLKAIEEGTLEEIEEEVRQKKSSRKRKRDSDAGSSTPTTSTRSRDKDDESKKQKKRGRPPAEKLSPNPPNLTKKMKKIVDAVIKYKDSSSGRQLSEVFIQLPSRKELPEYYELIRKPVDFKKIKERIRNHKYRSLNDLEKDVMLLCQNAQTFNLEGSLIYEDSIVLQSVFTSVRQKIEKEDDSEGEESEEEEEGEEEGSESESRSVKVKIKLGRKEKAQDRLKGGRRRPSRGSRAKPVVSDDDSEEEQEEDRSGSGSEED

| SMILES | DC50 [1] | Dmax [1] | DC50 [2] | BRM IF Degradation Sinf (%) [2] |
| --- | --- | --- | --- | --- |
| Nc1nnc(-c2ccccc2O)cc1N1CC2CCC(C1)N2c1ccnc(C#CCN2CC3CCOCC3C2)c1 (stereo not drawn) [Compound 92, 2-[5-[8-[2-[3-(3,3a,4,6,7,7a-hexahydro-1H-pyrano[3,4-c]pyrrol-2-yl)prop-1-ynyl]-4-pyridyl]-3,8-diazabicyclo[3.2.1]octan-3-yl]-6-amino-pyridazin-3-yl]phenol] | < 10 nM | 30 to 70% | < 10 nM | F (F indicates −71%-−120%) |
| Nc1nnc(-c2ccccc2O)cc1N1CC2CCC(C1)N2c1ccnc(C#CCN2CCC[C@@H]3OCC[C@@H]32)c1 [Compound 90, 2-[5-[8-[2-[3-[(3aS,7aS)-3,3a,5,6,7,7a-hexahydro-2H-furo[3,2-b]pyridin-4-yl]prop-1-ynyl]-4-pyridyl]-3,8-diazabicyclo[3.2.1]octan-3-yl]-6-amino-pyridazin-3-yl]phenol] | 10 to 100 nM | 0 to 30% | 10 to 100 nM | E (E indicates −30%-−70%) |
| Nc1nnc(-c2ccccc2O)cc1N1CC2CCC(C1)N2c1ccnc(C#CCN2CC3(CC(O)C3)C2)c1 [Compound 185, 2-[3-[4-[3-[3-amino-6-(2-hydroxyphenyl)pyridazin-4-yl]-3,8-diazabicyclo[3.2.1]octan-8-yl]-2-pyridyl]prop-2-ynyl]-2-azaspiro[3.3]heptan-6-ol] | 10 to 100 nM | 30 to 70% | > 100 nM | F (F indicates −71%-−120%) |
| Nc1nnc(-c2ccccc2O)cc1N1CC2CCC(C1)N2c1ccnc(C#CCN2CCN3CCCC3C2)c1 (stereo not drawn) [Compound 67, 2-[5-[8-[2-[3-(3,4,6,7,8,8a-hexahydro-1H-pyrrolo[1,2-a]pyrazin-2-yl)prop-1-ynyl]-4-pyridyl]-3,8-diazabicyclo[3.2.1]octan-3-yl]-6-amino-pyridazin-3-yl]phenol] | < 10 nM | 0 to 30% | 10 to 100 nM | E (E indicates −30%-−70%) |
| Nc1nnc(-c2ccccc2O)cc1N1CC2CCC(C1)N2c1ccnc(C#CCN2CCC(F)(F)C2)c1 [Compound 43, 2-[6-amino-5-[8-[2-[3-(3,3-difluoropyrrolidin-1-yl)prop-1-ynyl]-4-pyridyl]-3,8-diazabicyclo[3.2.1]octan-3-yl]pyridazin-3-yl]phenol] | < 10 nM | 0 to 30% | 10 to 100 nM | E (E indicates −30%-−70%) |
| CC1(CO)CCCN(CC#Cc2cc(N3C4CCC3CN(c3cc(-c5ccccc5O)nnc3N)C4)ccn2)CC1 (stereo not drawn) [Compound 197, 2-[6-amino-5-[8-[2-[3-[4-(hydroxymethyl)-4-methyl-azepan-1-yl]prop-1-ynyl]-4-pyridyl]-3,8-diazabicyclo[3.2.1]octan-3-yl]pyridazin-3-yl]phenol] | < 10 nM | 30 to 70% | < 10 nM | F (F indicates −71%-−120%) |
| Nc1nnc(-c2ccccc2O)cc1N1CC2CCC(C1)N2c1ccnc(C#CCN2C[C@H]3CC[C@@H]2C3)c1 [Compound 115, 2-[6-amino-5-[8-[2-[3-[(1R,4S)-2-azabicyclo[2.2.1]heptan-2-yl]prop-1-ynyl]-4-pyridyl]-3,8-diazabicyclo[3.2.1]octan-3-yl]pyridazin-3-yl]phenol] | < 10 nM | 30 to 70% | < 10 nM | E (E indicates −30%-−70%) |
| CO[C@H]1CCN(CC#Cc2cc(N3C4CCC3CN(c3cc(-c5ccccc5O)nnc3N)C4)ccn2)C1 [Compound 128, 2-[6-amino-5-[8-[2-[3-[(3S)-3-methoxypyrrolidin-1-yl]prop-1-ynyl]-4-pyridyl]-3,8-diazabicyclo[3.2.1]octan-3-yl]pyridazin-3-yl]phenol] | < 10 nM | 30 to 70% | 10 to 100 nM | F (F indicates −71%-−120%) |
| Nc1nnc(-c2ccccc2O)cc1N1CC2CCC(C1)N2c1ccnc(C#CCN2CCCC(CO)CC2)c1 (stereo not drawn) [Compound 215, 2-[6-amino-5-[8-[2-[3-[4-(hydroxymethyl)azepan-1-yl]prop-1-ynyl]-4-pyridyl]-3,8-diazabicyclo[3.2.1]octan-3-yl]pyridazin-3-yl]phenol] | 10 to 100 nM | 71 to 120% | < 10 nM | F (F indicates −71%-−120%) |
| Nc1nnc(-c2ccccc2O)cc1N1CC2CCC(C1)N2c1ccnc(C#CCN2CC3CCOC3C2)c1 (stereo not drawn) [Compound 81, 2-[5-[8-[2-[3-(2,3,3a,4,6,6a-hexahydrofuro[2,3-c]pyrrol-5-yl)prop-1-ynyl]-4-pyridyl]-3,8-diazabicyclo[3.2.1]octan-3-yl]-6-amino-pyridazin-3-yl]phenol] | < 10 nM | 30 to 70% | < 10 nM | E (E indicates −30%-−70%) |
| Nc1nnc(-c2ccccc2O)cc1N1CC2CCC(C1)N2c1ccnc(C#CCN2CCOC3CCNCC32)c1 (stereo not drawn) [Compound 147, 2-[5-[8-[2-[3-(2,3,4a,5,6,7,8,8a-octahydropyrido[4,3-b][l,4]oxazin-4-yl)prop-1-ynyl]-4-pyridyl]-3,8-diazabicyclo[3.2.1]octan-3-yl]-6-amino-pyridazin-3-yl]phenol] | > 100 nM | 30 to 70% | > 100 nM | E (E indicates −30%-−70%) |
| Nc1nnc(-c2ccccc2O)cc1N1CC2CCC(C1)N2c1ccnc(C#CCN2CCCC(CO)C2)c1 (stereo not drawn) [Compound 134, 2-[6-amino-5-[8-[2-[3-[3-(hydroxymethyl)-1-piperidyl]prop-1-ynyl]-4-pyridyl]-3,8-diazabicyclo[3.2.1]octan-3-yl]pyridazin-3-yl]phenol] | 10 to 100 nM | 30 to 70% | 10 to 100 nM | E (E indicates −30%-−70%) |
| Nc1nnc(-c2ccccc2O)cc1N1CC2CCC(C1)N2c1ccnc(C#CCN2C[C@@H]3C[C@@H](O)[C@H]2C3)c1 [Compound 109, (1R,4S,6R)-2-[3-[4-[3-[3-amino-6-(2-hydroxyphenyl)pyridazin-4-yl]-3,8-diazabicyclo[3.2.1]octan-8-yl]-2-pyridyl]prop-2-ynyl]-2-azabicyclo[2.2.1]heptan-6-ol] | < 10 nM | 30 to 70% | < 10 nM | E (E indicates −30%-−70%) |
| Nc1nnc(-c2ccccc2O)cc1N1CC2CCC(C1)N2c1ccnc(C#CCN2CCn3cccc3C2)c1 [Compound 107, 2-[6-amino-5-[8-[2-[3-(3,4-dihydro-1H-pyrrolo[l,2-a]pyrazin-2-yl)prop-1-ynyl]-4-pyridyl]-3,8-diazabicyclo[3.2.1]octan-3-yl]pyridazin-3-yl]phenol] | 10 to 100 nM | 0 to 30% | 10 to 100 nM | E (E indicates −30%-−70%) |
| Nc1nnc(-c2ccccc2O)cc1N1CC2CCC(C1)N2c1ccnc(C#CCN2C3CCC(C3)C2CO)c1 (stereo not drawn) [Compound 103, 2-[6-amino-5-[8-[2-[3-[3-(hydroxymethyl)-2-azabicyclo[2.2.1]heptan-2-yl]prop-1-ynyl]-4-pyridyl]-3,8-diazabicyclo[3.2.1]octan-3-yl]pyridazin-3-yl]phenol] | > 100 nM | 30 to 70% | < 10 nM | E (E indicates −30%-−70%) |
| Nc1nnc(-c2ccccc2O)cc1N1CC2CCC(C1)N2c1ccnc(C#CCN2CCC(F)CC2)c1 [Compound 131, 2-[6-amino-5-[8-[2-[3-(4-fluoro-1-piperidyl)prop-1-ynyl]-4-pyridyl]-3,8-diazabicyclo[3.2.1]octan-3-yl]pyridazin-3-yl]phenol] | < 10 nM | 0 to 30% | < 10 nM | E (E indicates −30%-−70%) |
| Nc1nnc(-c2ccccc2O)cc1N1CC2CCC(C1)N2c1ccnc(C#CCN2CC[C@@]3(O)C[C@H]3C2)c1 [Compound 117, (1S,6S)-3-[3-[4-[3-[3-amino-6-(2-hydroxyphenyl)pyridazin-4-yl]-3,8-diazabicyclo[3.2.1]octan-8-yl]-2-pyridyl]prop-2-ynyl]-3-azabicyclo[4.1.0]heptan-6-ol] | 10 to 100 nM | 0 to 30% | 10 to 100 nM | E (E indicates −30%-−70%) |
| CC1(C)CC(O)C(O)CN(CC#Cc2cc(N3C4CCC3CN(c3cc(-c5ccccc5O)nnc3N)C4)ccn2)C1 (stereo not drawn) [Compound 210, 1-[3-[4-[3-[3-amino-6-(2-hydroxyphenyl)pyridazin-4-yl]-3,8-diazabicyclo[3.2.1]octan-8-yl]-2-pyridyl]prop-2-ynyl]-6,6-dimethyl-azepane-3,4-diol] | > 100 nM |  | > 100 nM | E (E indicates −30%-−70%) |
| CNC(=O)C1COCCN1CC#Cc1cc(N2C3CCC2CN(c2cc(-c4ccccc4O)nnc2N)C3)ccn1 (stereo not drawn) [Compound 89, 4-[3-[4-[3-[3-amino-6-(2-hydroxyphenyl)pyridazin-4-yl]-3,8-diazabicyclo[3.2.1]octan-8-yl]-2-pyridyl]prop-2-ynyl]-N-methyl-morpholine-3-carboxamide] | > 100 nM |  | 10 to 100 nM | E (E indicates −30%-−70%) |
| Nc1nnc(-c2ccccc2O)cc1N1CC2CCC(C1)N2c1ccnc(C#CCN2CC(O)(C3CC3)C2)c1 [Compound 154, 1-[3-[4-[3-[3-amino-6-(2-hydroxyphenyl)pyridazin-4-yl]-3,8-diazabicyclo[3.2.1]octan-8-yl]-2-pyridyl]prop-2-ynyl]-3-cyclopropyl-azetidin-3-ol] | < 10 nM | 30 to 70% | < 10 nM | F (F indicates −71%-−120%) |
